Assay results from BindingDB's records for doi:10.1021/jm00001a010 (University of Massachusetts Medical School, 1995).

Biological target: Thymidine kinase (Herpes simplex virus type 1)
Test: Binding affinity towards HSV-1 thymidine kinase was determined

Question: Which Ki does the source give for `Nc1nc2c(ncn2CCCCO)c(=O)[nH]1` [2-amino-9-(4-hydroxybutyl)-6,9-dihydro-3H-purin-6-one] here?
Answer: 2.06 µM
